According to US11739098B2 (BRISTOL-MYERS SQUIBB COMPANY, priority 2017, dated 2023):

What was measured:
Format in all cases: cell-based
human TLR7 = biological target: T1, human TLR7 (Homo sapiens, UniProt Q9NYK1); experiment: TLR7 inhibition reporter assay (HEK-Blue cells, SEAP reporter, gardiquimod stimulation); settings: HEK-Blue cells overexpressing human TLR7, SEAP reporter, gardiquimod 7.5 μM
T1 construct: host or cells: HEK-Blue cells (HEK293-derived reporter line)
T1 sequence (Q9NYK1 27-1049): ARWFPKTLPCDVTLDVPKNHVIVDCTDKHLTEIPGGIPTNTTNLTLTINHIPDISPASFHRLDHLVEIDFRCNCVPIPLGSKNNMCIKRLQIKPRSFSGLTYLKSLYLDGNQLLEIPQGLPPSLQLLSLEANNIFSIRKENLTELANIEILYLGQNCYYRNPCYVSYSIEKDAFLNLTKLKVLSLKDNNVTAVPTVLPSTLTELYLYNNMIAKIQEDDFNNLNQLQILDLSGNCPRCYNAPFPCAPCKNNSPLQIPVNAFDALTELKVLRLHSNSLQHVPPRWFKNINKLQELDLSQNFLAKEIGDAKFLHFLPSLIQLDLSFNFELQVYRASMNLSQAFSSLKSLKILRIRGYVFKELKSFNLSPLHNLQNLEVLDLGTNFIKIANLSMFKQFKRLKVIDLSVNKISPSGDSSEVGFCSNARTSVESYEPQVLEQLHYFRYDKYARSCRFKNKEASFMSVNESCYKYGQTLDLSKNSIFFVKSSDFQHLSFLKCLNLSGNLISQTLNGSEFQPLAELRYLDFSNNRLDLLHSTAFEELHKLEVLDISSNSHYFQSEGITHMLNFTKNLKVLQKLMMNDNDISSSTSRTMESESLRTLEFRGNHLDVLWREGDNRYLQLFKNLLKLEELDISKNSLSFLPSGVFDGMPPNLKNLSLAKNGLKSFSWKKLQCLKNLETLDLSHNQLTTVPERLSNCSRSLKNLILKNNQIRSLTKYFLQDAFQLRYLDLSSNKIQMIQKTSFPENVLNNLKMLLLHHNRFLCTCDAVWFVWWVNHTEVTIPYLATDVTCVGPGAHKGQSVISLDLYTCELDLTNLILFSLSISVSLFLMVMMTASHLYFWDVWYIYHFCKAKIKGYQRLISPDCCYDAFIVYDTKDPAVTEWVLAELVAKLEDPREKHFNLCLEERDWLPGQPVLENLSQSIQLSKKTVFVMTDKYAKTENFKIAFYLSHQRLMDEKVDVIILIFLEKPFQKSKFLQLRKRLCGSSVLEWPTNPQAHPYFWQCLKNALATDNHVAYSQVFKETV
Protocol: (§1) TLR7/8/9 Inhibition Reporter Assays
(§2) HEK-Blue™-cells (Invivogen) overexpressing human TLR7, TLR8 or TLR9 receptors were used for screening inhibitors of these receptors using an inducible SEAP (secreted embryonic alkaline phosphatase) reporter gene under the control of the IFN-β minimal promoter fused to five NF-κB and AP-1-binding sites. Briefly, cells are seeded into Greiner 384 well plates (15000 cells per well for TLR7, 20,000 for TLR8 and 25,000 for TLR9) and then treated with test compounds in DMSO to yield a final dose response concentration range of 0.05 nM-50 μM. After a 30 minute compound pre-treatment at room temperature, the cells are then stimulated with a TLR7 ligand (gardiquimod at a final concentration of 7.5 μM), TLR8 ligand (R848 at a final concentration of 15.9 μM) or TLR9 ligand (ODN2006 at a final concentration of 5 nM) to activate NF-κB and AP-1 which induce the production of SLAP After a 22 hour incubation at […], SLAP levels are determined with the addition of HLK-Blue™ Detection reagent (Invivogen), a cell culture medium that allows for detection of SLAP, according to manufacturer's specifications. The percent inhibition is determined as the […] in the HEK-Blue signal present in wells treated with agonist plus DMSO alone compared to wells treated with a known inhibitor.

human TLR8 = biological target: T2, human TLR8 (Homo sapiens, UniProt Q9NR97); experiment: TLR8 inhibition reporter assay (HEK-Blue cells, SEAP reporter, R848 stimulation); settings: HEK-Blue cells overexpressing human TLR8, SEAP reporter, R848 15.9 μM
T2 construct: host or cells: HEK-Blue cells (HEK293-derived reporter line)
T2 sequence (Q9NR97 27-1041): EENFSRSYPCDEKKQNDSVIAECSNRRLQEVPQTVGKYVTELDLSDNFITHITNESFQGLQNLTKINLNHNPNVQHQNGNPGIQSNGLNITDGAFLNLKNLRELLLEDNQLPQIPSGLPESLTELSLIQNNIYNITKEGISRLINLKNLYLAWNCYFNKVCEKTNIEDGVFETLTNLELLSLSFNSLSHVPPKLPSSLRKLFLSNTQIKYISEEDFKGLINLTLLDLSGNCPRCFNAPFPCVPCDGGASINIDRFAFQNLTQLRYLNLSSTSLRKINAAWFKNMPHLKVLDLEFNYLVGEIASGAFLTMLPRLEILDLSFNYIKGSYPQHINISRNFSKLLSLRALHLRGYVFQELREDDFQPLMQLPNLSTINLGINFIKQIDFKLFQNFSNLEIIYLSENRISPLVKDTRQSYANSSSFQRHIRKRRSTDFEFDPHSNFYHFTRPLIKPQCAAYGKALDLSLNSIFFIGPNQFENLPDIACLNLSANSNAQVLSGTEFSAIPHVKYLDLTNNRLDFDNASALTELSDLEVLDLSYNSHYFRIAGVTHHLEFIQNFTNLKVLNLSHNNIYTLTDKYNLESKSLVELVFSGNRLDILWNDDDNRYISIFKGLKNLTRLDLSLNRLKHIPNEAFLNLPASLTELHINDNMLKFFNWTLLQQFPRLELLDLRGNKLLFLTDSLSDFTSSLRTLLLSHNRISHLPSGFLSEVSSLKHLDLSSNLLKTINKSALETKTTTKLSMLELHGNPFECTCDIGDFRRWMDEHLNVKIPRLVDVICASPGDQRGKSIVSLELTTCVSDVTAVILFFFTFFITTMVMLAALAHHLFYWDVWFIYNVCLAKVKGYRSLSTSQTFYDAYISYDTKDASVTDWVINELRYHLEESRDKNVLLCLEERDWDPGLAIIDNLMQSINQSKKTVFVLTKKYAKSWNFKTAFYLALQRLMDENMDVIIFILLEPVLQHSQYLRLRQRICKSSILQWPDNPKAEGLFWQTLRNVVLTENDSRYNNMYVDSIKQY
Protocol: as §1, §2

human TLR9 = biological target: T3, human TLR9 (Homo sapiens, UniProt Q9NR96); experiment: TLR9 inhibition reporter assay (HEK-Blue cells, SEAP reporter, ODN2006 stimulation); settings: HEK-Blue cells overexpressing human TLR9, SEAP reporter, ODN2006 5 nM
T3 construct: host or cells: HEK-Blue cells (HEK293-derived reporter line)
T3 sequence (Q9NR96 26-1032): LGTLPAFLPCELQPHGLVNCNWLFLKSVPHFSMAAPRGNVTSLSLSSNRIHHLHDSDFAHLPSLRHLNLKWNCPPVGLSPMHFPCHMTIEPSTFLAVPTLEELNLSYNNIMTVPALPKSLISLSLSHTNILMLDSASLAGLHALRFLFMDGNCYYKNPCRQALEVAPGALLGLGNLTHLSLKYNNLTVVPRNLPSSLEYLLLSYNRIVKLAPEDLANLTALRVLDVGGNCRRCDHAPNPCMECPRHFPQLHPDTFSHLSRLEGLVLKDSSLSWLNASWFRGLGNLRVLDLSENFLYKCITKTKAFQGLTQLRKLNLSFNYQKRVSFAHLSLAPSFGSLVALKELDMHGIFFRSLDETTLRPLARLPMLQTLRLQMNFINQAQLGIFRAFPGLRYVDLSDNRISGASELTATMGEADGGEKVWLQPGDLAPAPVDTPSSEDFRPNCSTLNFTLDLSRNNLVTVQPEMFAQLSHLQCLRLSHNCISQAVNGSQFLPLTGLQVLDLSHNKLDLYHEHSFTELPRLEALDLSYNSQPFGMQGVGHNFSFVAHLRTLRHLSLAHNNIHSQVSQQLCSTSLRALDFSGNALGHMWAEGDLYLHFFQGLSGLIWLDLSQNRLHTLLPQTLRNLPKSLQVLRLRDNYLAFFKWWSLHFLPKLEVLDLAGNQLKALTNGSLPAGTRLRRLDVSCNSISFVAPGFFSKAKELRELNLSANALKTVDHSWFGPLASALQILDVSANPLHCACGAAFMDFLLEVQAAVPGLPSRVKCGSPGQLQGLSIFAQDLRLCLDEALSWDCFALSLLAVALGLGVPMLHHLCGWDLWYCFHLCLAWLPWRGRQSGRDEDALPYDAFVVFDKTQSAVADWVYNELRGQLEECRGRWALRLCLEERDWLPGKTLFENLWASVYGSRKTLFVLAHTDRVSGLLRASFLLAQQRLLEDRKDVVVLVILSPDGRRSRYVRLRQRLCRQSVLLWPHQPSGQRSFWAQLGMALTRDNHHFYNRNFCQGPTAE
Protocol: as §1, §2

Row | SMILES | IC50 (human TLR7) [nM] | IC50 (human TLR8) [nM] | IC50 (human TLR9) [nM]
1 | CNCCN1CCC(c2ccc3[nH]c(-c4cncc5ccccc45)c(C)c3c2)CC1 [Example 665, 2-(4-(2-(isoquinolin-4-yl)-3-methyl-1H-indol-5-yl)piperidin-1-yl)-N-methylethan-1-amine] | > 50000 | > 3130 | 100 to 1000
2 | CCc1c(-c2ccn3ccnc3c2)[nH]c2ccc(C3CCNCC3)cc12 [Example 202, 7-(3-ethyl-5-(piperidin-4-yl)-1H-indol-2-yl)imidazo[1,2-a]pyridine] | 1000 to 50000 | 1000 to 50000 | 100 to 1000
3 | COCCN1CCC(c2ccc3[nH]c(-c4ccc(C#N)c5ncccc45)c(C(C)C)c3c2)CC1 [Example 778, 5-(3-isopropyl-5-(1-(2-methoxyethyl)piperidin-4-yl)-1H-indol-2-yl)quinoline-8-carbonitrile] | < 100 | < 100 | 1000 to 50000
4 | CC(C)c1c(-c2cn3ccnc3cc2C(F)(F)F)[nH]c2ccc(C3CCNCC3)cc12 [Example 135, 6-(3-isopropyl-5-(piperidin-4-yl)-1H-indol-2-yl)-7-(trifluoromethyl)imidazo[1,2-a]pyridine] | 100 to 1000 | < 100 | 1000 to 50000
5 | CCc1c(-c2ccnc3[nH]ccc23)[nH]c2ccc(C3CCN(Cc4cccn4C)CC3)cc12 [Example 871, 4-(3-ethyl-5-(1-((1-methyl-1H-pyrrol-2-yl)methyl)piperidin-4-yl)-1H-indol-2-yl)-1H-pyrrolo[2,3-b]pyridine] | 100 to 1000 | < 100 | 1000 to 50000
6 | Cc1c(-c2ccnc3[nH]cc(C(C)C)c23)[nH]c2ccc(C3CCNCC3)cc12 [Example 214, 3-isopropyl-4-(3-methyl-5-(piperidin-4-yl)-1H-indol-2-yl)-1H-pyrrolo[2,3-b]pyridine] | 1000 to 50000 | 1000 to 50000 | 100 to 1000
7 | CC(C)c1c(-c2cn(C)c3ncncc23)[nH]c2ccc(C3CCN(C(=O)CN(C)C)CC3)cc12 [Example 456, 2-(dimethylamino)-1-(4-(3-isopropyl-2-(7-methyl-7H-pyrrolo[2,3-d]pyrimidin-5-yl)-1H-indol-5-yl)piperidin-1-yl)ethan-1-one] | < 100 | < 100 | 1000 to 50000
8 | CNC(=O)CN1CCC(c2ccc3[nH]c(-c4cc(Cl)c5ncccc5c4)c(C(C)C)c3c2)CC1 [Example 381, 2-(4-(2-(8-chloroquinolin-6-yl)-3-isopropyl-1H-indol-5-yl)piperidin-1-yl)-N-methylacetamide] | < 100 | 100 to 1000 | 1000 to 50000
9 | Cc1cn2cc(-c3[nH]c4ccc(C5CCNCC5)cc4c3C(C)C)cnc2n1 [Example 159, 6-(3-isopropyl-5-(piperidin-4-yl)-1H-indol-2-yl)-2-methylimidazo[1,2-a]pyrimidine] | < 100 | 1000 to 50000 | 100 to 1000
10 | CCc1c(-c2cnc3ncccn23)[nH]c2ccc(C3CCNCC3)cc12 [Example 29, 3-(3-ethyl-5-(piperidin-4-yl)-1H-indol-2-yl) imidazo[1,2-a]pyrimidine] | 100 to 1000 | < 100 | 100 to 1000
11 | Cc1cc(-c2[nH]c3ccc(C4CCN(C(=O)CN(C)C)CC4)cc3c2C(C)C)cc2nccnc12 [Example 518, 2-(dimethylamino)-1-(4-(3-isopropyl-2-(8-methylquinoxalin-6-yl)-1H-indol-5-yl)piperidin-1-yl)ethan-1-one] | < 100 | < 100 | 1000 to 50000
12 | CNCCN1CCC(c2ccc3[nH]c(-c4ccc5scnc5c4)c(C)c3c2)CC1 [compound 659] | 1000 to 50000 | > 3130 | 100 to 1000
13 | CCc1c(-c2ccnc3[nH]ncc23)[nH]c2ccc(C3CCN(Cc4nc(C)oc4C)CC3)cc12 [Example 898, 4-((4-(3-ethyl-2-(1H-pyrazolo[3,4-b]pyridin-4-yl)-1H-indol-5-yl)piperidin-1-yl)methyl)-2,5-dimethyloxazole] | 100 to 1000 | < 100 | 1000 to 50000
